Experiment [1] has as its system Capan-1 (K-Ras G12V). The experiment in a line: CellTiter-Glo cell viability assay, 5-day treatment. The experiment is classed as cell-based. The conditions noted are these: Homo sapiens, CAPAN-1, 120 h, 5-day treatment; read-out: Capan-1 Cell Viability assay data (K-Ras G12V, IC50). In outline:
(§1)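 Five-day compound treatment of plated cells; luminescent read after ~30 min at RT. Percent-of-DMSO data fit to a four-parameter logistic model.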
A general note: In ATP-based viability assays light output follows the ATP content of the culture.

Experiment [2] has as its system NCI-H358 (K-Ras G12C). The description is as above. The experiment is classed as cell-based. To be noted: Homo sapiens, NCI-H358, 120 h, 5-day treatment; read-out: H358 Cell Viability assay data (K-Ras G12C, IC50). In outline: as §1
The target of experiment [3] is KRAS G12C (Homo sapiens, UniProt P01116+P62937, G12C). The experiment in a line: Disruption of BRAF RBD interaction with Ras (FRET / MOA assay, with Cyclophilin A). The experiment is classed as biochemical. The method, boiled down: (§2)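 IC50 values reflect loss of K-Ras binding to BRAF RBD, read as a lowered TR-FRET ratio compared with DMSO, driven by compound-mediated K-Ras:Cyclophilin A complex formation. Compound top dose 30 μM final, 3-fold steps, 3 h incubation at 25 °C before a 1.5 h antibody step.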
Sequence of KRAS G12C (P01116 1-169 isoform P01116-2 G12C): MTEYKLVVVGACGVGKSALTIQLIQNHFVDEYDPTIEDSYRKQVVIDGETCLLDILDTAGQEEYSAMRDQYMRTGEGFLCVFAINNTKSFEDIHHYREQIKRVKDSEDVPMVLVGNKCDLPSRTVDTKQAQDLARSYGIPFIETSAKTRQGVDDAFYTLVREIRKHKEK
Sequence of KRAS G12C (P62937 whole entry): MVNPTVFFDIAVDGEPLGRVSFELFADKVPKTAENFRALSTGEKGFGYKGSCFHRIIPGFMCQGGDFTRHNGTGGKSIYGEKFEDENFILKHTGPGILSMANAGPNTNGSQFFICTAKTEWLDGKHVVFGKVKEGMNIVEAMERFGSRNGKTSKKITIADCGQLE

The target in experiment [4] is KRAS G12D (Homo sapiens, UniProt P01116+P62937, G12D). Described as above. The format is biochemical. In outline: as §2
Sequence of KRAS G12D (P01116 1-169 isoform P01116-2 G12D limits assumed): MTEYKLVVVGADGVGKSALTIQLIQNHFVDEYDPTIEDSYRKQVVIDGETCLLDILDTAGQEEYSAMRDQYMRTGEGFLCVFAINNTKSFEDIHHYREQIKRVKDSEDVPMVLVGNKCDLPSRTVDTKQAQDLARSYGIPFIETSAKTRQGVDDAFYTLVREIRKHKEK
Sequence of KRAS G12D (P62937 whole entry): as the sequence (P62937 whole entry) above
The target of experiment [5] is KRAS G12S (Homo sapiens, UniProt P01116+P62937, G12S). Described as above. The format is biochemical. The method, boiled down:
as §2

In experiment [6] the target is KRAS G12V (Homo sapiens, UniProt P01116+P62937, G12V). Described as above. The experiment is classed as biochemical. In outline: as §2
Sequence of KRAS G12V (P01116 1-169 isoform P01116-2 G12V limits assumed): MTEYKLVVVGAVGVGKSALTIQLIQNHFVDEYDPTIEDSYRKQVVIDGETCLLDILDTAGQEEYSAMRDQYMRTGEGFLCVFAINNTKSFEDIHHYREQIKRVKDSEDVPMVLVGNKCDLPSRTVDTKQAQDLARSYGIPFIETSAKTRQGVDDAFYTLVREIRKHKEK
Sequence of KRAS G12V (P62937 whole entry): as the sequence (P62937 whole entry) above
Experiment [7] concerns the target KRAS G13C (Homo sapiens, UniProt P01116+P62937, G13C). The description is as above. The experiment is classed as biochemical. In outline: as §2
Experiment [8] deals with KRAS G13D (Homo sapiens, UniProt P01116+P62937, G13D). The description is as above. The format is biochemical. The method, boiled down: as §2
Sequence of KRAS G13D (P01116 1-169 isoform P01116-2 G13D limits assumed): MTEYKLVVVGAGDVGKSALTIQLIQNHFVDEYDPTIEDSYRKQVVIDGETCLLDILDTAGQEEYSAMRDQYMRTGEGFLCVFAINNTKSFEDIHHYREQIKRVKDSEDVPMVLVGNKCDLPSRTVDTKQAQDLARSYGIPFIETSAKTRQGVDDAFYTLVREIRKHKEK
Sequence of KRAS G13D (P62937 whole entry): as the sequence (P62937 whole entry) above
For experiment [9], the target named is KRAS WT (Homo sapiens, UniProt P01116+P62937). The experiment is described as above. The format is biochemical. The method, boiled down:
as §2

The target in experiment [10] is NRAS G12C (Homo sapiens, UniProt P01111+P62937, G12C). The experiment is described as above. The experiment is classed as biochemical.
Sequence of NRAS G12C (P01111 whole entry G12C): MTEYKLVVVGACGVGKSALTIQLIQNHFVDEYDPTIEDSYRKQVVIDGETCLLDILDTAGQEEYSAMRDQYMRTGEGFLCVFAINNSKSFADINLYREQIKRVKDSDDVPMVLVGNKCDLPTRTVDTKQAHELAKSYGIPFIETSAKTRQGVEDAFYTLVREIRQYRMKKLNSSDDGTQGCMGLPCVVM
Sequence of NRAS G12C (P62937 whole entry): as the sequence (P62937 whole entry) above
For experiment [11], the target named is KRAS Q61H (Homo sapiens, UniProt P01116+P62937, Q61H). The description is as above. The experiment is classed as biochemical. To be noted: KRAS Q61H; read-out: KRAS Q61H FRET data IC50. In outline: (§3)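 IC50 reflects compound-driven Ras:Cyclophilin A ternary complex displacing BRAF RBD, read as lowered TR-FRET ratio relative to DMSO after Eu anti-His (10 nM) and APC anti-GST (50 nM) detection for 1.5 h. Prior incubation 3 h, 25° C, with 12.5 nM GMPPNP-loaded Ras, 50 nM BRAF RBD, 25 μM Cyclophilin A; top compound 30 μM.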
Sequence of KRAS Q61H (P01116 1-169 isoform P01116-2 Q61H limits assumed): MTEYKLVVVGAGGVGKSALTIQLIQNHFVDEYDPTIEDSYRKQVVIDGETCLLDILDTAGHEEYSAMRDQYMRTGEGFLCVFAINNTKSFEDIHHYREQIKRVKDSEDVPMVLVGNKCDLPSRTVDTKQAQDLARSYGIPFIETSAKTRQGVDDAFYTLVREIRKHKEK
Sequence of KRAS Q61H (P62937 whole entry): as the sequence (P62937 whole entry) above

In experiment [12] the target is NRAS Q61K (Homo sapiens, UniProt P01111+P62937, Q61K). The experiment is described as above. To be noted: NRAS Q61K; read-out: NRAS Q61K FRET data IC50. The experiment is classed as biochemical. In outline:
as §3

The target in experiment [13] is NRAS Q61R (Homo sapiens, UniProt P01111+P62937, Q61R). The experiment is described as above. The experiment is classed as biochemical. To be noted: NRAS Q61R; read-out: NRAS Q61R FRET data IC50. In outline:
as §3

The target of experiment [14] is NRAS WT (Homo sapiens, UniProt P01111+P62937). The experiment is described as above. The format is biochemical. The conditions noted are these: NRAS WT; read-out: NRAS WT FRET data IC50. The method, boiled down:
as §3

[15] abbreviates: read-out: KRAS G12C FRET data, IC50.
The mark [16] stands for this setting: read-out: KRAS G12D FRET data, IC50.
Setting [17] is: read-out: KRAS G12S FRET data, IC50.
Setting [18] is: KRAS G12V, read-out: KRAS G12V FRET data IC50.
The mark [19] stands for this setting: read-out: KRAS G13C FRET data, IC50.
The mark [20] stands for this setting: KRAS G13D, read-out: KRAS G13D FRET data IC50.
[21] abbreviates: KRAS WT, read-out: KRAS WT FRET data IC50.
Where [22] appears, read: NRAS G12C, read-out: NRAS G12C FRET data IC50.

Read-outs that look alike come from different tables or passages of the source.

Sequence of KRAS WT (P01116 1-169 isoform P01116-2 limits assumed): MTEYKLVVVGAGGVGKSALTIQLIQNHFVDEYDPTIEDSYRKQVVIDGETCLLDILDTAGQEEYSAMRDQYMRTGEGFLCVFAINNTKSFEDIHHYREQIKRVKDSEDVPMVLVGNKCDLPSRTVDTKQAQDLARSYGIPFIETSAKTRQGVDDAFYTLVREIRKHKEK
Sequence of KRAS WT (P62937 whole entry): as the sequence (P62937 whole entry) above
Sequence of NRAS Q61K (P01111 whole entry Q61K): as the sequence (P01111 whole entry G12C) above, with C12G, Q61K counted along it
Sequence of NRAS Q61K (P62937 whole entry): as the sequence (P62937 whole entry) above
Sequence of NRAS WT (P01111 whole entry): as the sequence (P01111 whole entry G12C) above, with C12G counted along it
Sequence of NRAS WT (P62937 whole entry): as the sequence (P62937 whole entry) above
Sequence of NRAS Q61R (P01111 whole entry Q61R): as the sequence (P01111 whole entry G12C) above, with C12G, Q61R counted along it
Sequence of NRAS Q61R (P62937 whole entry): as the sequence (P62937 whole entry) above
Sequence of KRAS G13C (P01116 1-169 isoform P01116-2 G13C): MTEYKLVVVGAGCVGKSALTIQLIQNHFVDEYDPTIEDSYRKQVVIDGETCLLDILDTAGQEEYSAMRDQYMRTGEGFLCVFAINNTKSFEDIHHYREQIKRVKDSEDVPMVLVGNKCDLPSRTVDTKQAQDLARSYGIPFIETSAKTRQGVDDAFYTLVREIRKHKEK
Sequence of KRAS G13C (P62937 whole entry): as the sequence (P62937 whole entry) above
Sequence of KRAS G12S (P01116 1-169 isoform P01116-2 G12S limits assumed): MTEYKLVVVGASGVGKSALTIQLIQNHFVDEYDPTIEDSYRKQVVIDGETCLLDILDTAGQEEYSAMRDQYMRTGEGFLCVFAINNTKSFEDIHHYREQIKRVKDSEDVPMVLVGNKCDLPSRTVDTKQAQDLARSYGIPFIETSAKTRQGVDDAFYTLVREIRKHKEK
Sequence of KRAS G12S (P62937 whole entry): as the sequence (P62937 whole entry) above

Take `CCn1c(-c2cccnc2[C@H](C)OC)c2c3cc(ccc31)-c1csc(n1)C[C@H](NC(=O)[C@H](C(C)C)N(C)C(=O)N1CC([C@@H](C)NC)C1)C(=O)N1CCC[C@H](N1)C(=O)OCC(C)(C)C2` (atropisomer, axis not shown) [Example A488]: the 50% inhibitory concentration (IC50) – broadly, the concentration at which inhibition is half-maximal – in experiment [1] is 100 to 1000 nM; in [2] it was 10 to 100 nM; in experiment [3] (setting [15]), 10 to 100 nM; in [4] (setting [16]), 100 to 1000 nM; in experiment [5] (setting [17]), 100 to 1000 nM; in experiment [6] (setting [18]), 100 to 1000 nM. For the same compound, the IC50 was in the range of 100 to 1000 nM in experiment [7] (setting [19]); 100 to 1000 nM in experiment [8] (setting [20]); 100 to 1000 nM in experiment [9] (setting [21]); 10 to 100 nM in experiment [10] (setting [22]); 10 to 100 nM in [11]; 10 to 100 nM in [12]. Moreover, the half-inhibitory concentration (IC50) in experiment [13] and in experiment [14] was 100 to 1000 nM in each case.
As for `CCn1c(-c2cccnc2[C@H](C)OC)c2c3cc(ccc31)-c1csc(n1)C[C@H](NC(=O)[C@H](C(C)C)N(C)C(=O)N1CCOC[C@@H]1CN(C)C)C(=O)N1CCC[C@H](N1)C(=O)OCC(C)(C)C2` [Example A572], the 50% inhibitory concentration (IC50) in [1] fell in the range of 1000 to 10000 nM; in [2], 100 to 1000 nM; in experiment [3] (KRAS G12C FRET data, IC50), 1000 to 10000 nM; in [4] (KRAS G12D FRET data, IC50), 1000 to 10000 nM; in experiment [5] (KRAS G12S FRET data, IC50), 1000 to 10000 nM; in experiment [6] (KRAS G12V FRET data IC50, KRAS G12V) it was 1000 to 10000 nM. Also, the half-inhibitory concentration (IC50) in experiment [7] (KRAS G13C FRET data, IC50) lay within 1000 to 10000 nM; in experiment [8] (KRAS G13D FRET data IC50, KRAS G13D) it was 1000 to 10000 nM; in [9] (KRAS WT FRET data IC50, KRAS WT), 1000 to 10000 nM; in experiment [10] (NRAS G12C FRET data IC50, NRAS G12C), 1000 to 10000 nM; in [11], 100 to 1000 nM; in experiment [12], 1000 to 10000 nM. Besides, the concentration for half-maximal inhibition (IC50) in experiment [13] and in experiment [14] was 1000 to 10000 nM in each case.
Take `CCn1c(-c2cccnc2[C@H](C)OC)c2c3cc(ccc31)-c1csc(n1)C[C@H](NC(=O)[C@H](C(C)C)N(C)C(=O)N1CCC[C@@H](CN(C)C)C1)C(=O)N1CCC[C@H](N1)C(=O)OCC(C)(C)C2` [Example A574]: the IC50 fell in the range of 10 to 100 nM in experiment [1]; 10 to 100 nM in experiment [2]; 10 to 100 nM in experiment [3] (setting [15]); 100 to 1000 nM in experiment [4] (setting [16]); 100 to 1000 nM in [5] (setting [17]); 100 to 1000 nM in experiment [6] (setting [18]). Also, the half-maximal inhibitory concentration (IC50) lay in the range of 100 to 1000 nM in [7] (setting [19]); 100 to 1000 nM in experiment [8] (setting [20]); 10 to 100 nM in [9] (setting [21]); 10 to 100 nM in [10] (setting [22]); 10 to 100 nM in experiment [11]; 10 to 100 nM in experiment [12]. The IC50 in [13] was in the range of 100 to 1000 nM; in experiment [14] it was 10 to 100 nM.
With `CCn1c(-c2cccnc2[C@H](C)OC)c2c3cc(ccc31)-c1csc(n1)C[C@H](NC(=O)[C@H](C(C)C)N(C)C(=O)N(C)C1CCC1)C(=O)N1CCC[C@H](N1)C(=O)OCC(C)(C)C2` (atropisomer, axis not shown) [Example A349], the IC50 in experiment [1] lay within 100 to 1000 nM; in experiment [2], 10 to 100 nM; in experiment [3] (setting [15]), 10 to 100 nM; in [4] (setting [16]) it was 100 to 1000 nM; in experiment [5] (setting [17]), 10 to 100 nM; in experiment [6] (setting [18]), 10 to 100 nM. Further, the half-inhibitory concentration (IC50) in [7] (setting [19]), in experiment [8] (setting [20]), in [9] (setting [21]), in experiment [10] (setting [22]), in experiment [11] and in experiment [12] was 10 to 100 nM throughout. Further, the IC50 in [13] and in experiment [14] was 10 to 100 nM in each case.
`CCn1c(-c2cc(N3CCN(C)CC3)cnc2[C@H](C)OC)c2c3cc(ccc31)-c1csc(n1)C[C@H](NC(=O)[C@H](C(C)C)N(C)C(=O)N1CCC13CCN(C)CC3)C(=O)N1CCC[C@H](N1)C(=O)OCC(C)(C)C2` (atropisomer, axis not shown) [Example A483]: the IC50 in experiment [1] was 10 to 100 nM; in experiment [2], below 10 nM; in experiment [3] (setting [15]), 10 to 100 nM; in experiment [4] (setting [16]), 10 to 100 nM; in experiment [5] (setting [17]) it was 10 to 100 nM; in experiment [6] (setting [18]) it was 100 to 1000 nM. Besides, the 50% inhibitory concentration (IC50) was in the range of 100 to 1000 nM in experiment [7] (setting [19]); 100 to 1000 nM in experiment [8] (setting [20]); 10 to 100 nM in experiment [9] (setting [21]); 10 to 100 nM in experiment [10] (setting [22]); 10 to 100 nM in experiment [11]; 10 to 100 nM in [12]. Also, the half-inhibitory concentration (IC50) in experiment [13] and in [14] was 10 to 100 nM throughout.

(Values after patent US20230233569A1 (Revolution Medicines, Inc., priority 2020, published 2023).)
